This is an account of results in patent publication US20240238423A9, “TETRAHYDROISOQUINOLINE HETEROBIFUNCTIONAL BCL-XL DEGRADERS” (Treeline Biosciences, Inc., priority 2022, published 2024).

Structures are written as SMILES. Where two headings read alike, the source gives them in different places.

The target in this test is T1, Human BCL-XL protein (N-terminal HiBiT tagged BCL-XL in HT1080 cells) (Homo sapiens, UniProt Q07817).
T1 construct: expressed in transfected cells; host or cells: HT-1080 (ATCC CCL-121), stably transduced with lentivirus pLV-UBC-N-HiBiT-BCL-XL-PGK-puro and selected with puromycin
T1 sequence (Q07817 whole entry): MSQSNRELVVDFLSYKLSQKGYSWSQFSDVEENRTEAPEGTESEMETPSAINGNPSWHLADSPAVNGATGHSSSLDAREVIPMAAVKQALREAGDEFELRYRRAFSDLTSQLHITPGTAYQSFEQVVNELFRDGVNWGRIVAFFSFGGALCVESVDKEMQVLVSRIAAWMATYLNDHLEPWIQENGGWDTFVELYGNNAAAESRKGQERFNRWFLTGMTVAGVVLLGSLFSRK
Briefly: HiBiT based degradation assay. In kind it is cell-based. Particulars: HT1080 cells expressing HiBiT-BCL-XL; for Ymin (6 h) / Ymin (24 h): BCL-XL degradation normalized with DMSO control; for DC50: BCL-XL degradation. An outline of the steps: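 This HiBiT degradation assay measured loss of BCL-XL in HT1080 cells that stably express an N-terminal HiBiT-BCL-XL fusion delivered by lentivirus. Cells were added to compound-spotted 384-well plates, and luminescence was read on a PHERAstar FSX reader. Signal was expressed relative to DMSO controls, curves were fitted by four-parameter logistic regression, and for hook-shaped curves the Ymin point served as the bottom plateau when calculating EC50.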

For the compound `Cc1c(O[C@H]2CC[C@H](CCC(=O)N3CCN(c4cccc5c(C6CCC(=O)NC6=O)nn(C)c45)CC3)CC2)cccc1-c1ccc(N2CCc3cccc(C(=O)Nc4nc5ccccc5s4)c3C2)nc1C(=O)O` (stereo partly shown) [Compound 146a, 6-(8-(benzo[d]thiazol-2-ylcarbamoyl)-3,4-dihydroisoquinolin-2(1H)-yl)-3-(3-(((1r,4r)-4-(3-(4-(3-(2,6-dioxopiperidin-3-yl)-1-methyl-1H-indazol-7-yl)piperazin-1-yl)-3-oxopropyl)cyclohexyl)oxy)-2-methylphenyl)picolinic acid], the “Ymin (6 h)” value (6 h) was “A (Ymin < 50%)”. Moreover, under “24 h”, the “Ymin (24 h)” value is “A (Ymin < 50%)”. Further, the DC50 reads like this: (6 h, read-out: EC50 (6 h)) 100 to 1000 nM; (24 h, read-out: EC50 (24 h)) under 100 nM.

Regarding `Cc1c(O[C@H]2CC[C@@H](CCC(=O)N3CCN(c4cccc5c(C6CCC(=O)NC6=O)nn(C)c45)CC3)CC2)cccc1-c1ccc(N2CCc3cccc(C(=O)Nc4nc5ccccc5s4)c3C2)nc1C(=O)O` (stereo partly shown) [Compound 146b, 6-(8-(benzo[d]thiazol-2-ylcarbamoyl)-3,4-dihydroisoquinolin-2(1H)-yl)-3-(3-(((1s,4s)-4-(3-(4-(3-(2,6-dioxopiperidin-3-yl)-1-methyl-1H-indazol-7-yl)piperazin-1-yl)-3-oxopropyl)cyclohexyl)oxy)-2-methylphenyl)picolinic acid], the “Ymin (24 h)” value (24 h) was “B (50% ≤ Ymin < 70%)”. In addition, the DC50 (24 h, read-out: EC50 (24 h)) fell in the range of 100 to 1000 nM.

On to `Cc1c(O[C@H]2CC[C@H](CCCN3CCN(c4cccc5c(C6CCC(=O)NC6=O)nn(C)c45)CC3)CC2)cccc1-c1ccc(N2CCc3cccc(C(=O)Nc4nc5ccccc5s4)c3C2)nc1C(=O)O` (stereo partly shown) [Compound 147a, 6-(8-(benzo[d]thiazol-2-ylcarbamoyl)-3,4-dihydroisoquinolin-2(1H)-yl)-3-(3-(((1s,4r)-4-(3-(4-(3-(2,6-dioxopiperidin-3-yl)-1-methyl-1H-indazol-7-yl)piperazin-1-yl)propyl)cyclohexyl)oxy)-2-methylphenyl)picolinic acid], for which the “Ymin (6 h)” value (6 h) is “B (50% ≤ Ymin < 70%)”. For the setting “24 h”, the “Ymin (24 h)” value is “A (Ymin < 50%)”. Also, the DC50 (6 h, read-out: EC50 (6 h)) was under 100 nM and the DC50 (24 h, read-out: EC50 (24 h)) is under 100 nM.

`Cc1c(O[C@H]2CC[C@@H](CCCN3CCN(c4cccc5c(C6CCC(=O)NC6=O)nn(C)c45)CC3)CC2)cccc1-c1ccc(N2CCc3cccc(C(=O)Nc4nc5ccccc5s4)c3C2)nc1C(=O)O` (stereo partly shown) [Compound 147b, 6-(8-(benzo[d]thiazol-2-ylcarbamoyl)-3,4-dihydroisoquinolin-2(1H)-yl)-3-(3-(((1r,4s)-4-(3-(4-(3-(2,6-dioxopiperidin-3-yl)-1-methyl-1H-indazol-7-yl)piperazin-1-yl)propyl)cyclohexyl)oxy)-2-methylphenyl)picolinic acid]: the “Ymin (24 h)” value (24 h) was “B (50% ≤ Ymin < 70%)”. Moreover, the DC50 (24 h, read-out: EC50 (24 h)) is under 100 nM.

Take `Cc1c(O[C@H]2CC[C@H](CCCN3CCN(c4ccc5c(C6CCC(=O)NC6=O)nn(C)c5c4)CC3)CC2)cccc1-c1ccc(N2CCc3cccc(C(=O)Nc4nc5ccccc5s4)c3C2)nc1C(=O)O` (stereo partly shown) [Compound 148a, 6-(8-(benzo[d]thiazol-2-ylcarbamoyl)-3,4-dihydroisoquinolin-2(1H)-yl)-3-(3-(((1s,4r)-4-(3-(4-(3-(2,6-dioxopiperidin-3-yl)-1-methyl-1H-indazol-6-yl)piperazin-1-yl)propyl)cyclohexyl)oxy)-2-methylphenyl)picolinic acid]: the “Ymin (6 h)” value (6 h) is recorded as “B (50% ≤ Ymin < 70%)”. Moreover, the “Ymin (24 h)” value (24 h) is recorded as “A (Ymin < 50%)”. Also, the DC50 was under 100 nM (6 h, read-out: EC50 (6 h)) and under 100 nM (24 h, read-out: EC50 (24 h)).

With `Cc1c(O[C@H]2CC[C@@H](CCCN3CCN(c4ccc5c(C6CCC(=O)NC6=O)nn(C)c5c4)CC3)CC2)cccc1-c1ccc(N2CCc3cccc(C(=O)Nc4nc5ccccc5s4)c3C2)nc1C(=O)O` (stereo partly shown) [Compound 148b, 6-(8-(benzo[d]thiazol-2-ylcarbamoyl)-3,4-dihydroisoquinolin-2(1H)-yl)-3-(3-(((1r,4s)-4-(3-(4-(3-(2,6-dioxopiperidin-3-yl)-1-methyl-1H-indazol-6-yl)piperazin-1-yl)propyl)cyclohexyl)oxy)-2-methylphenyl)picolinic acid], the “Ymin (24 h)” value (24 h) is on record as “A (Ymin < 50%)”. For the same compound, the DC50 (24 h, read-out: EC50 (24 h)) is under 100 nM.

Take `Cc1c(Oc2ccc(CCCN3CCN(c4ccc5c(C6CCC(=O)NC6=O)nn(C)c5c4)CC3)cc2)cccc1-c1ccc(N2CCc3cccc(C(=O)Nc4nc5ccccc5s4)c3C2)nc1C(=O)O` (stereo not shown) [Compound 149, 6-(8-(benzo[d]thiazol-2-ylcarbamoyl)-3,4-dihydroisoquinolin-2(1H)-yl)-3-(3-(4-(3-(4-(3-(2,6-dioxopiperidin-3-yl)-1-methyl-1H-indazol-6-yl)piperazin-1-yl)propyl)phenoxy)-2-methylphenyl)picolinic acid]: the “Ymin (6 h)” value (6 h) is recorded as “B (50% ≤ Ymin < 70%)”. Moreover, the “Ymin (24 h)” value (24 h) is “A (Ymin < 50%)”. Besides, the DC50 was under 100 nM (6 h, read-out: EC50 (6 h)) and under 100 nM (24 h, read-out: EC50 (24 h)).

Consider `Cc1c(Oc2ccc(CCCN3CCN(c4cccc5c(C6CCC(=O)NC6=O)nn(C)c45)CC3)cc2)cccc1-c1ccc(N2CCc3cccc(C(=O)Nc4nc5ccccc5s4)c3C2)nc1C(=O)O` (stereo not shown) [Compound 150, 6-[8-(1,3-benzothiazol-2-ylcarbamoyl)-3,4-dihydro-1H-isoquinolin-2-yl]-3-[3-[4-[3-[4-[3-(2,6-dioxo-3-piperidyl)-1-methyl-indazol-7-yl]piperazin-1-yl]propyl]phenoxy]-2-methyl-phenyl]pyridine-2-carboxylic acid], for which, under “6 h”, the “Ymin (6 h)” value is reported as “B (50% ≤ Ymin < 70%)”. Also, the “Ymin (24 h)” value (24 h) is listed as “B (50% ≤ Ymin < 70%)”. The DC50 is, setting by setting: (6 h, read-out: EC50 (6 h)) 100 to 1000 nM; (24 h, read-out: EC50 (24 h)) under 100 nM.

As to `Cc1c(OCCCN2CCN(CC(=O)N3CCN(c4cccc5c(C6CCC(=O)NC6=O)nn(C)c45)CC3)CC2)cccc1-c1ccc(N2CCc3cccc(C(=O)Nc4nc5ccccc5s4)c3C2)nc1C(=O)O` (stereo not shown) [Compound 151, 6-(8-(Benzo[d]thiazol-2-ylcarbamoyl)-3,4-dihydroisoquinolin-2(1H)-yl)-3-(3-(3-(4-(2-(4-(3-(2,6-dioxopiperidin-3-yl)-1-methyl-1H-indazol-7-yl)piperazin-1-yl)-2-oxoethyl)piperazin-1-yl)propoxy)-2-methylphenyl)picolinic acid], the “Ymin (6 h)” value (6 h) is “B (50% ≤ Ymin < 70%)”. Also, the “Ymin (24 h)” value (24 h) was “A (Ymin < 50%)”. The DC50 is 100 to 1000 nM (6 h, read-out: EC50 (6 h)) and under 100 nM (24 h, read-out: EC50 (24 h)).

Consider `Cc1cc(OCCCN2CCN(CC(=O)N3CCN(c4cccc5c(C6CCC(=O)NC6=O)nn(C)c45)CC3)CC2)ccc1-c1ccc(N2CCc3cccc(C(=O)Nc4nc5ccccc5s4)c3C2)nc1C(=O)O` (stereo not shown) [Compound 152, 6-(8-(Benzo[d]thiazol-2-ylcarbamoyl)-3,4-dihydroisoquinolin-2(1H)-yl)-3-(4-(3-(4-(2-(4-(3-(2,6-dioxopiperidin-3-yl)-1-methyl-1H-indazol-7-yl)piperazin-1-yl)-2-oxoethyl)piperazin-1-yl)propoxy)-2-methylphenyl)picolinic acid], for which the “Ymin (6 h)” value (6 h) is “B (50% ≤ Ymin < 70%)”. Moreover, the “Ymin (24 h)” value (24 h) was “A (Ymin < 50%)”. The DC50 (6 h, read-out: EC50 (6 h)) was under 100 nM and the DC50 (24 h, read-out: EC50 (24 h)) is under 100 nM.

On to `Cc1cc(OCCCN2CCN(CC(=O)N3CCN(c4ccc5c(C6CCC(=O)NC6=O)nn(C)c5c4)CC3)CC2)ccc1-c1ccc(N2CCc3cccc(C(=O)Nc4nc5ccccc5s4)c3C2)nc1C(=O)O` (stereo not shown) [Compound 153, 6-(8-(Benzo[d]thiazol-2-ylcarbamoyl)-3,4-dihydroisoquinolin-2(1H)-yl)-3-(4-(3-(4-(2-(4-(3-(2,6-dioxopiperidin-3-yl)-1-methyl-1H-indazol-6-yl)piperazin-1-yl)-2-oxoethyl)piperazin-1-yl)propoxy)-2-methylphenyl)picolinic acid], for which the “Ymin (6 h)” value (6 h) was “A (Ymin < 50%)”. In addition, the “Ymin (24 h)” value (24 h) is recorded as “A (Ymin < 50%)”. For the same compound, the DC50 runs as follows: (6 h, read-out: EC50 (6 h)) under 100 nM; (24 h, read-out: EC50 (24 h)) under 100 nM.

Consider `Cc1cc(OCCCN2C[C@@H](C)N(CC(=O)N3CCN(c4ccc5c(C6CCC(=O)NC6=O)nn(C)c5c4)CC3)[C@@H](C)C2)ccc1-c1ccc(N2CCc3cccc(C(=O)Nc4nc5ccccc5s4)c3C2)nc1C(=O)O` (stereo partly drawn) [Compound 154a, 6-(8-(Benzo[d]thiazol-2-ylcarbamoyl)-3,4-dihydroisoquinolin-2(1H)-yl)-3-(4-(3-((3R,5S)-4-(2-(4-(3-(2,6-dioxopiperidin-3-yl)-1-methyl-1H-indazol-6-yl)piperazin-1-yl)-2-oxoethyl)-3,5-dimethylpiperazin-1-yl)propoxy)-2-methylphenyl)picolinic acid], for which the “Ymin (6 h)” value (6 h) is “A (Ymin < 50%)”. For the same compound, the “Ymin (24 h)” value (24 h) is listed as “A (Ymin < 50%)”. Moreover, the DC50 by setting is: (6 h, read-out: EC50 (6 h)) under 100 nM; (24 h, read-out: EC50 (24 h)) under 100 nM.

`Cc1c(OCCCCCCCCCN2CCN(c3ccc4c(C5CCC(=O)NC5=O)nn(C)c4c3)CC2)cccc1-c1ccc(N2CCc3cccc(C(=O)Nc4nc5ccccc5s4)c3C2)nc1C(=O)O` (stereo not shown) [Compound 155, 6-[8-(1,3-benzothiazol-2-ylcarbamoyl)-3,4-dihydro-1H-isoquinolin-2-yl]-3-[3-[9-[4-[3-(2,6-dioxo-3-piperidyl)-1-methyl-indazol-6-yl]piperazin-1-yl]nonoxy]-2-methyl-phenyl]pyridine-2-carboxylic acid]: the “Ymin (6 h)” value (6 h) was “B (50% ≤ Ymin < 70%)”. Further, the “Ymin (24 h)” value (24 h) was “A (Ymin < 50%)”. Besides, the DC50 runs as follows: (6 h, read-out: EC50 (6 h)) under 100 nM; (24 h, read-out: EC50 (24 h)) under 100 nM.
